Data on 1 compound can be found in ChEMBL document CHEMBL1151390, “Microbial Transformations of Natural Antitumor Agents. 20. Glucosylation of Viridi-catumtoxin” (J Nat Prod, 1982).

The source made the active and inactive calls. The rule behind the calls is not given here.

In this test the test system is P388. Description: Antitumor activity against mouse P388 cells. Type of test: functional, cell-based.

Regarding `COc1cc(O)c2c(O[C@@H]3O[C@H](CO)[C@@H](O)[C@H](O)[C@H]3O)c3c(c4c2c1[C@@]1(C4)C(C)=CCCC1(C)C)[C@H](O)[C@@]1(O)CC(O)=C(C(N)=O)C(=O)[C@@]1(O)C3=O`, the result was inactive.
